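Cells were grown in 96-well plates and exposed to each compound for 48 hours at five concentrations; endpoints were interpolated linearly between bracketing concentrations, or set to the highest concentration if not reached. GI50 is the concentration that inhibits growth by half. TGI is the concentration that stops growth completely.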
Legend:
Test in all cases: NCI anticancer screen, dose series, 48 h
[1] = system: M14 melanoma
[2] = system: OVCAR-5 ovarian
[3] = system: HOP-92 NSCLC
[4] = system: MALME-3M melanoma
[5] = system: PC-3 prostate
[6] = system: HCT-116 colon
[7] = system: CCRF-CEM leukemia
[8] = system: SW-620 colon
[9] = system: U251 CNS
[10] = system: LOX IMVI melanoma
[11] = system: MDA-MB-435
[12] = system: SR leukemia
[13] = system: BT-549 breast
[14] = system: 786-0 renal
[15] = system: A498 renal
[16] = system: SK-MEL-2 melanoma
[17] = system: HCT-15 colon
[18] = system: ACHN renal
[19] = system: UACC-257 melanoma
[20] = system: KM12 colon
[21] = system: SK-MEL-28 melanoma
[22] = system: SF-295 CNS
[23] = system: SNB-19 CNS
[24] = system: SNB-75 CNS
[25] = system: MDA-MB-231 breast
[26] = system: NCI-H23 lung
[27] = system: RPMI-8226 leukemia
[28] = system: SK-MEL-5 melanoma
[29] = system: NCI-H522 lung
[30] = system: OVCAR-8 ovarian
[31] = system: TK-10 renal
[32] = system: T-47D breast
[33] = system: NCI-H460 lung
[34] = system: CAKI-1 renal
[35] = system: SK-OV-3 ovarian
[36] = system: NCI-H226 lung
[37] = system: UO-31 renal
[38] = system: EKVX NSCLC
[39] = system: HL-60(TB) leukemia
[40] = system: MCF7 breast
[41] = system: SN12C renal
[42] = system: HOP-62 NSCLC
[43] = system: UACC-62 melanoma
[44] = system: SF-539 CNS
[45] = system: K-562 leukemia
[46] = system: IGROV1 ovarian
[47] = system: RXF 393 renal
[48] = system: HS 578T breast
[49] = system: OVCAR-4 ovarian
[50] = system: HT29 colon
[51] = system: DU-145 prostate
[52] = system: OVCAR-3 ovarian
[53] = system: HCC-2998 colon
[54] = system: SF-268 CNS
[55] = system: NCI/ADR-RES ovarian
[56] = system: COLO 205 colon
[57] = system: A549 NSCLC

## CCNCCNc1cc(-c2ccc(C#N)cc2)c(C#N)c2nc3ccccc3n12
[1]
  GI50: 1.88 µM
  TGI: 3.79 µM
[2]
  GI50: 4.66 µM
  TGI: 18.4 µM
[3]
  GI50: 2.21 µM
  TGI: 4.5 µM
[4]
  GI50: 1.8 µM
  TGI: 3.99 µM
[5]
  GI50: 7.41 µM
  TGI: 20.7 µM
[6]
  GI50: 1.5 µM
  TGI: 2.94 µM
[7]
  GI50: 2.49 µM
  TGI: 9.9 µM
[8]
  GI50: 2.68 µM
  TGI: 11.1 µM
[9]
  GI50: 2.34 µM
  TGI: 5.2 µM
[10]
  GI50: 1.72 µM
  TGI: 3.29 µM
[11]
  GI50: 2.29 µM
  TGI: 6.28 µM
[12]
  GI50: 2.59 µM
  TGI: 6.74 µM
[13]
  GI50: 1.9 µM
  TGI: 4.91 µM
[14]
  GI50: 2.2 µM
  TGI: 7.46 µM
[15]
  GI50: 3.73 µM
  TGI: 11.9 µM
[16]
  GI50: 3.2 µM
  TGI: 10.4 µM
[17]
  GI50: 2.81 µM
  TGI: 11 µM
[18]
  GI50: 2.34 µM
  TGI: 5.73 µM
[19]
  GI50: 3.72 µM
  TGI: 7.14 µM
[20]
  GI50: 3.36 µM
  TGI: 12.2 µM
[21]
  GI50: 1.86 µM
  TGI: 3.72 µM
[22]
  GI50: 1.79 µM
  TGI: 3.6 µM
[23]
  GI50: 4.69 µM
  TGI: 17.4 µM
[24]
  GI50: 1.66 µM
  TGI: 4.24 µM
[25]
  GI50: 2.35 µM
  TGI: 5.61 µM
[26]
  GI50: 5.3 µM
  TGI: 21.3 µM
[27]
  GI50: 4.78 µM
  TGI: 19.5 µM
[28]
  GI50: 2.28 µM
  TGI: 5.67 µM
[29]
  GI50: 2.44 µM
  TGI: 7.06 µM
[30]
  GI50: 5.15 µM
  TGI: 16.9 µM
[31]
  GI50: 2.03 µM
  TGI: 5.74 µM
[32]
  GI50: 2.34 µM
  TGI: 6.39 µM
[33]
  GI50: 2.47 µM
  TGI: 5.66 µM
[34]
  GI50: 3.5 µM
  TGI: 13.5 µM
[35]
  GI50: 3.8 µM
  TGI: 14.8 µM
[36]
  GI50: 2.59 µM
  TGI: 11.9 µM
[37]
  GI50: 1.62 µM
  TGI: 3.1 µM
[38]
  GI50: 4.75 µM
  TGI: 19.3 µM
[39]
  GI50: 1.87 µM
  TGI: 4.35 µM
[40]
  GI50: 3.59 µM
  TGI: 16.2 µM
[41]
  GI50: 3.13 µM
  TGI: 11.8 µM
[42]
  GI50: 3.13 µM
  TGI: 14.9 µM
[43]
  GI50: 2.02 µM
  TGI: 4.18 µM
[44]
  GI50: 1.77 µM
  TGI: 3.49 µM
[45]
  GI50: 3.13 µM
  TGI: 18.2 µM
[46]
  GI50: 4.53 µM
  TGI: 18 µM
[47]
  GI50: 1.74 µM
  TGI: 4.1 µM
[48]
  GI50: 3.49 µM
  TGI: 13.9 µM
[49]
  GI50: 2.54 µM
  TGI: 8.74 µM
[50]
  GI50: 3.1 µM
  TGI: 9.82 µM
[51]
  GI50: 4.13 µM
  TGI: 15.3 µM
[52]
  GI50: 1.66 µM
  TGI: 3.09 µM
[53]
  GI50: 6.04 µM
  TGI: 20.8 µM
[54]
  GI50: 3.42 µM
  TGI: 14.1 µM
[55]
  GI50: 5.74 µM
  TGI: 36 µM
[56]
  GI50: 1.88 µM
  TGI: 4.16 µM
[57]
  GI50: 3.06 µM
  TGI: 6.39 µM
